The values that follow come from publication PMC7050772 (Cellular physiology and biochemistry : international …, 2020).

Where two headings read alike, the source gives them in different places.

Assay [1] deals with T1, cytochrome P450 1A1 (CYP1A1) (Homo sapiens, UniProt P04798).
T1 sequence (P04798 1-512): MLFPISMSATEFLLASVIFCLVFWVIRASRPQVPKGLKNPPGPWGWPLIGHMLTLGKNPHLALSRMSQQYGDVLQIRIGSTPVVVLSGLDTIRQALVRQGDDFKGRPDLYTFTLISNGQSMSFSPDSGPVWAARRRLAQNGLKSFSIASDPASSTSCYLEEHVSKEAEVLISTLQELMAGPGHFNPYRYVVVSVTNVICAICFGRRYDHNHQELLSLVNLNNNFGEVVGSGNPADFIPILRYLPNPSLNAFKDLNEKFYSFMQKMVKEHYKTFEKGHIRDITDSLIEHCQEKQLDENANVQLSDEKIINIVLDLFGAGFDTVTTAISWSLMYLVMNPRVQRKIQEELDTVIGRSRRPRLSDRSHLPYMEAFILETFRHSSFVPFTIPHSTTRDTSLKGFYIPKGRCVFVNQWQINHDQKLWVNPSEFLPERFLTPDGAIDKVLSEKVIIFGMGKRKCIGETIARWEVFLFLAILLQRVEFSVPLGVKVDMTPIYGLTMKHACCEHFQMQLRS
The experiment in a line: P450-Glo Luc-CEE luminescence assay with recombinant CYP1A1 microsomes. Type of assay: biochemical.

The target in assay [2] is T1, cytochrome P450 1A1 (CYP1A1). The assay is described as above. Type of assay: biochemical. The source holds these as a separate data set.

Turning to `NCCc1c[nH]c2ccc(O)cc12` [5-HT, Serotonin], the IC50 in assay [1] is 1620 nM.

For `NCCc1c[nH]c2ccccc12` [TRYPT, Tryptamine], the concentration for half-maximal inhibition (IC50) in assay [2] was 1400 nM.

On to `O=c1cc(-c2ccccc2)oc2c1ccc1ccccc12` [α-NF, α-naphthoflavone, reference compound], for which the IC50 in assay [2] was 760 nM.

By IC50 is commonly meant the concentration needed to halve the response being measured.
